The source of these data is patent publication US10342766B2, “6-shogaol derivatives and activities thereof” (North Carolina Agricultural and Technical State University, priority 2017, dated 2019).

Several values for one entry are separate records, joined by “and”; a condition that tells them apart may be missing. Identical values can stand only once. Entries after “also recorded” stand apart in the source; their conditions may differ.

What is called IC50 is the midpoint of a concentration-inhibition curve. A lower IC50 goes with greater potency.

One assay relates to Nrf2. In words: Nrf2 reporter activity by Tg(gstp1:GFP) fluorescence in transgenic zebrafish embryos. The note with it: 5 μM, 24-hour treatment from 1 dpf to 2 dpf; olfactory epithelia; relative to vehicle (DMSO = 1.00). Format: in vivo. The protocol: Zebrafish AB transgenic strains Tg(gstp1:GFP) were maintained in a Pentair Aquatic Ecosystem (Apopka, Fla., United States of America) fish housing unit with 14 h light/10 h dark cycle (see Tsujita, T., Li, L., Nakajima, H., Iwamoto, N., Nakajima-Takagi, Y., Ohashi, K., Kawakami, K., Kumagai, Y., Freeman, B. A., Yamamoto, M., and Kobayashi, M. (2011) “Nitro-fatty acids and cyclopentenone prostaglandins share strategies to activate the Keap1-Nrf2 system: a study using green fluorescent protein transgenic zebrafish.” Genes Cells 16, 46-57). The fish embryos were maintained at 28.5° C. in 0.3× Danieau's solution (19.3 mM NaCl, 0.23 mM KCl, 0.13 mM MgSO4, 0.2 mM Ca(NO3)2, 1.7 mM HEPES, pH 7.0) containing 30 μg/ml phenylthiourea (PTU) to inhibit pigmentation. Tg(gstp1:GFP) cross with AB wild-type strain fluorescence embryos were used for the experiment. Zebrafish embryos were washed, dechorionated and anaesthetized before observations, and fluorescence imaging for analysis.
Transgenic zebrafish embryos at 1 day-post-fertilization (dpf) were dechorionated and placed in Petri dishes containing different chemicals diluted in 0.3× Danieau's solution containing PTU. The chemical stock was dissolved in DMSO at 5 mM concentration.
An Olympus MVX10 Fluorescence Macroscope (Olympus, Center Valley, Pa., United States of America) equipped with a Hamamatsu C9300-221 high-speed digital CCD camera (Hamamatsu City, Japan) was used for fluorescence microscopy. Tg(gstp1:GFP) fluorescent embryos were anaesthetized in tricaine and imaged at 2 dpf. MetaMorph Basic software (Olympus, Center Valley, Pa., United States of America) was used for image acquisition and analysis.
Quantification of Nrf2 Reporter Activity by Tg(gstp1:
GFP) Fluoresence in Zebrafish Model. The fluorescence intensity of the olfactory neural epithelia was quantitated using MetaMorph Basic software. In brief, GFP expression in the olfactory regions of Tg(gstp1:GFP) embryos treated with various chemicals was measured after 24-hour treatment from 1 dpf to 2 dpf. The GFP induction was detectable by fluorescence signal at the area of the olfactory epithelia in the anterior of the head region, the intensity was measured using an area of a circle of 60 pixel diameter of the fluorescence olfactory epithelia subtracted by a background non-fluorescence area next to the zebrafish embryo. Both the left and right olfactory epithelia were measured to give an average fluorescence value. The values are an average of measurements from at least 10 embryos.

A further assay concerns heme oxygenase-1 (HO-1). The assay is described as follows: Western blotting of HO-1 expression in CCD 841 CoN cells. It counts as cell-based, human. The protocol:
Human normal colonic epithelial cells (CCD 841 CoN) were grown in Eagle's Minimum Essential Medium with 10% fetal bovine serum and 1% penicillin/streptomycin, and maintained at 37° C. in a 100% humidified atmosphere of 5% CO2 and 95% air. Fresh growth medium was added to the cells every two days until confluent. Cells were planted in 145×20 mm flat-bottomed tissue culture dishes and growth to 70-80% confluence and then treated with compound 27 for various doses and time points. At the end of incubation period, cell lysates were prepared in ice-cold Cell Lysis Buffer (Cell Signaling, Danvers, Mass., United States of America) with 1% protease inhibitor cocktail and 1% phenylmethylsulfonyl fluoride (Sigma, St. Louis, Mo., United States of America). Protein concentrations were measured using BCA Protein Assay Kit (Thermo Scientific, Rockford, Ill., United States of America). […] The bound complexes were detected with SuperSignal Chemiluminescent Substract (Thermo Scientific, Rockford, Ill., United States of America). The immunoblot bands were quantified by densitometry analysis, and the ratio to β-actin was calculated and presented.

Assay [1] relates to human colon cancer cells HCT-116. In words: MTT growth inhibition, HCT-116. Format: cell-based. The note with it: 24 hours. Here is the method: Cell viability was determined by an MTT colorimetric assay. Briefly, human colon cancer cells HCT-116 or HT-29, were plated in 96-well microtiter plates with 3000 cells/well and allowed to attach for 24 hours at 37° C. and 5% CO2. The test compounds (in DMSO) were added to cell culture medium to desired final concentrations (final DMSO concentrations for control and treatments were 0.1%). After the cells were cultured for 24 hours, the medium was aspirated and cells were treated with 200 μL fresh medium containing 2.41 mmol/L MTT. After incubation for 3 hours at 37° C., the medium containing MTT was aspirated, 100 μL of DMSO was added to solubilize the formazan precipitate, and the plates were shaken gently for an hour at room temperature. Absorbance values were derived from the plate reading at 550 nm on a Biotek (Winooski, Vt., United States of America) microtiter plate reader. The reading reflected the number of viable cells and was expressed as a percentage of viable cells in the control. CCD-18Co cells were grown in EMEM. Both HCT-116 and HT-29 cells were cultured in McCoy's 5A medium. All of the above media were supplemented with 10% fetal bovine serum, 1% penicillin/streptomycin, and 1% glutamine, and the cells were kept in a 37° C. incubator with 95% humidity and 5% CO2.

In the case of `CCCCCCCC(=O)/C=C/c1ccc(O)c(O)c1` [Compound 27], the “Ratio/CTL, Tg(gstp1:GFP) fluorescence signal” value with Nrf2 was 9.19 and 9.19 ± 0.12. Also, the “HO-1 expression, time dependence” value with heme oxygenase-1 (HO-1) (10 μM for 3, 6, 12 and 24 h, vs control (0 h)) was “significantly increased HO-1 expression; also recorded: increased HO-1 expression in a time-dependent manner”. Moreover, the “HO-1 protein expression, dose dependence” value in the assay with heme oxygenase-1 (HO-1) (5, 10 and 20 μM for 24 h, vs untreated control) is given as “significantly increased HO-1 protein expression; also recorded: increased HO-1 expression in a dose-dependent manner”. Besides, half-maximal inhibition in assay [1] (IC50) was put at 34.1 µM.
